Where two headings read alike, the source gives them in different places.
What was measured:
[1] = test system: giant foxtail; test: Test A pre-/postemergence herbicide test; assay type: in vivo, Setaria faberi; details: for pest or weed control at 500 g/ha / pest or weed control at 2000 g/ha: Setaria faberi, 240 h
Outline: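 Visual injury scores on a 0–100 scale (100 = complete control) taken about ten days post-treatment in greenhouse against untreated controls; dash means no result. Treatments: preemergence soil spray and postemergence spray to runoff on one- to two-leaf plants 2 to 10 cm tall, surfactant-containing formulation.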

[2] = test system: cocklebur; test: Test C pre-/postemergence herbicide test; assay type: in vivo, Xanthium strumarium; details: for pest or weed control at 62 g/ha / Plant response rating (0 = no effect, 100 = complete control), Cocklebur: 62 g ai/ha
Outline: (§1)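 Visual ratings on a 0–100 scale (100 = complete control) made versus untreated controls after 12 to 14 greenhouse days. Test chemicals, formulated in surfactant-containing non-phytotoxic solvent, applied preemergence to planted seeds or postemergence to 1- to 4-leaf plants (2 to 18 cm).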

[3] = test system: bermudagrass; test: Test C pre-/postemergence herbicide test; assay type: in vivo, Cynodon dactylon
Outline: as §1

[4] = test system: yellow nutsedge; test: Test C pre-/postemergence herbicide test; assay type: in vivo, Cyperus esculentus; details: for pest or weed control at 62 g/ha / Plant response rating (0 = no effect, 100 = complete control), Nutsedge, Yellow: 62 g ai/ha
Outline: as §1

[5] = test system: ducksalad; test: Test C flooded paddy test; assay type: in vivo, Heteranthera limosa; details: for pest or weed control at 62 g/ha / pest or weed control at 125 g/ha / pest or weed control at 250 g/ha / pest or weed control at 500 g/ha: Heteranthera limosa; for pest or weed control at 62 g/ha / pest or weed control at 125 g/ha / pest or weed control at 250 g/ha: read-out: Ducksalad plant response rating; for pest or weed control at 500 g/ha: read-out: Plant response rating, Ducksalad
[6] = test system: eastern black nightshade; test: Test C pre-/postemergence herbicide test; assay type: in vivo, Solanum ptycanthum
Outline: as §1

[7] = post-emergence, Postemergence, 2000 g ai/ha, 0 to 100 scale, 0 no effect, 100 complete control, read-out: Plant response rating, Foxtail, Giant
[8] = Xanthium strumarium, pre-emergence, 312 h, 125 g ai/ha, scale 0 (no effect) to 100 (complete control), visual, 12 to 14 days, read-out: Plant response rating, Cocklebur
[9] = Cynodon dactylon, pre-emergence, 312 h, 125 g ai/ha, scale 0 (no effect) to 100 (complete control), visual, 12 to 14 days, read-out: Plant response rating, Bermudagrass
[10] = Cyperus, pre-emergence, 125 g ai/ha, scale 0 (no effect) to 100 (complete control), visual, 12 to 14 days, read-out: Plant response rating, Nutsedge, Yellow
[11] = 62 g ai/ha, scale 0 to 100 (0 no effect, 100 complete control)
[12] = 250 g ai/ha, scale of 0 to 100, 0 is no effect, 100 is complete control
[13] = 500 g ai/ha, visual rating after 12 to 14 days, scale 0 to 100 (0 no effect, 100 complete control)
[14] = pre-emergence, 125 g ai/ha, scale 0 (no effect) to 100 (complete control), visual, 12 to 14 days, read-out: Plant response rating, Nightshade
[15] = 125 g ai/ha, scale of 0 to 100, 0 is no effect, 100 is complete control
[16] = 31 g ai/ha, preemergence, scale 0 to 100
[17] = 125 g ai/ha, scale 0 (no effect) to 100 (complete control), visual, 12 to 14 days, preemergence
[18] = 250 g ai/ha, scale 0 to 100 (0 no effect, 100 complete control), visual, 12 to 14 days, preemergence

Compound: CCc1nn(C(C)(C)C)cc1C(=O)Nc1cc(C(=O)N(C)C)ccc1F [Compound 222, N-[5-[(dimethylamino)carbonyl]-2-fluorophenyl]-1-(1,1-dimethylethyl)-3-ethyl-1H-pyrazole-4-carboxamide]
- pest or weed control at 500 g/ha ([1]; post-emergence, Postemergence, 500 g ai/ha, 0 to 100 scale, 0 no effect, 100 complete control, read-out: Foxtail, Giant plant response rating): 65%
- pest or weed control at 2000 g/ha [1, 7]: 85%
- pest or weed control at 2000 g/ha ([1]; pre-emergence, Preemergence, 2000 g ai/ha, visual rating, 0 to 100 scale (0 no effect, 100 complete control), read-out: Foxtail, Giant plant response rating): 100%
- pest or weed control at 500 g/ha ([1]; pre-emergence, preemergence, 500 g ai/ha, visual injury, 0 to 100 scale (0 no effect, 100 complete control), read-out: Foxtail, Giant plant response rating): 95%
- pest or weed control at 62 g/ha ([2]; Xanthium strumarium, pre-emergence, 312 h, preemergence, scale 0 to 100, read-out: Plant response rating, Cocklebur): 0%
- pest or weed control at 125 g/ha [2, 8]: 20%
- pest or weed control at 250 g/ha ([2]; Xanthium strumarium, pre-emergence, 312 h, 250 g ai/ha, scale 0-100, read-out: Plant response rating, Cocklebur): 70%
- pest or weed control at 500 g/ha ([2]; Xanthium strumarium, pre-emergence, 312 h, Preemergence, 500 g ai/ha, scale 0 to 100, 0 no effect, 100 complete control, read-out: Cocklebur plant response rating): 100%
- pest or weed control at 62 g/ha ([3]; Cynodon dactylon, pre-emergence, 312 h, 62 g ai/ha, preemergence, scale 0 to 100, 0 no effect, 100 complete control, read-out: Plant response rating, Bermudagrass): 85%
- pest or weed control at 125 g/ha [3, 9]: 100%
- pest or weed control at 250 g/ha ([3]; Cynodon dactylon, pre-emergence, 312 h, 250 g ai/ha, scale 0-100, read-out: Plant response rating, Bermudagrass): 100%
- pest or weed control at 500 g/ha ([3]; Cynodon dactylon, pre-emergence, 312 h, Preemergence, 500 g ai/ha, scale 0 to 100, 0 no effect, 100 complete control, read-out: Bermudagrass plant response rating): 100%
- pest or weed control at 62 g/ha ([4]; Cyperus, pre-emergence, preemergence, scale 0 to 100, read-out: Plant response rating, Nutsedge, Yellow): 0%
- pest or weed control at 125 g/ha [4, 10]: 0%
- pest or weed control at 250 g/ha ([4]; Cyperus, pre-emergence, 250 g ai/ha, scale 0-100, read-out: Plant response rating, Nutsedge, Yellow): 20%
- pest or weed control at 500 g/ha ([4]; Cyperus, pre-emergence, 500 g ai/ha, scale 0 to 100 (0 no effect, 100 complete control), visual, 12 to 14 days, read-out: Plant response rating, Nutsedge, Yellow): 60%
- pest or weed control at 62 g/ha [5, 11]: 70%
- pest or weed control at 125 g/ha ([5]; 125 g ai/ha, scale 0 to 100 (0 no effect, 100 complete control)): 75%
- pest or weed control at 250 g/ha [5, 12]: 85%
- pest or weed control at 500 g/ha [5, 13]: 95%
- pest or weed control at 62 g/ha ([6]; pre-emergence, 62 g ai/ha, preemergence, scale 0 to 100, read-out: Plant response rating, Nightshade): 85%
- pest or weed control at 125 g/ha [6, 14]: 100%
- pest or weed control at 250 g/ha ([6]; pre-emergence, 250 g ai/ha, scale 0-100, read-out: Plant response rating, Nightshade): 100%
- pest or weed control at 500 g/ha ([6]; pre-emergence, 500 g ai/ha, scale 0 to 100 (0 no effect, 100 complete control), visual, 12 to 14 days, read-out: Plant response rating, Nightshade): 100%

Compound: CCOC(=O)c1cccc(NC(=O)c2cc(C(C)(C)C)nn2CC)c1 [Compound 80, ethyl 3-[[[3-(1,1-dimethylethyl)-1-ethyl-1H-pyrazol-5-yl]carbonyl]-amino]benzoate]
- pest or weed control at 500 g/ha ([1]; post-emergence, Postemergence, 500 g ai/ha, 0 to 100 scale, 0 no effect, 100 complete control, read-out: Plant response rating, Foxtail, Giant): 80%
- pest or weed control at 2000 g/ha [1, 7]: 90%
- pest or weed control at 500 g/ha ([1]; pre-emergence, Preemergence, 500 g ai/ha, visual rating, 0 to 100 scale (0 no effect, 100 complete control), read-out: Foxtail, Giant plant response rating): 20%
- pest or weed control at 2000 g/ha ([1]; pre-emergence, Preemergence, 2000 g ai/ha, 0 to 100 scale, 0 no effect, 100 complete control, read-out: Foxtail, Giant plant response rating): 70%
- Plant response rating (0 = no effect, 100 = complete control), Cocklebur ([2]; preemergence): 0
- pest or weed control at 250 g/ha ([2]; Xanthium strumarium, post-emergence, 312 h, Postemergence, 250 g ai/ha, scale 0 to 100, 0 no effect, 100 complete control, read-out: Plant response rating, Cocklebur): 100%
- pest or weed control at 125 g/ha ([2]; Xanthium strumarium, post-emergence, 312 h, postemergence, 125 g ai/ha, scale 0 to 100, read-out: Plant response rating, Cocklebur): 90%
- pest or weed control at 31 g/ha ([2]; Xanthium strumarium, post-emergence, 312 h, postemergence, 31 g ai/ha, scale 0 to 100, read-out: Plant response rating, Cocklebur): 70%
- pest or weed control at 62 g/ha ([2]; Xanthium strumarium, post-emergence, 312 h, postemergence, scale 0 to 100, read-out: Plant response rating, Cocklebur): 90%
- pest or weed control at 125 g/ha [2, 8]: 10%
- pest or weed control at 250 g/ha ([2]; Xanthium strumarium, pre-emergence, 312 h, 250 g ai/ha, scale 0 to 100 (0 no effect, 100 complete control), visual, 12 to 14 days, read-out: Plant response rating, Cocklebur): 10%
- Plant response rating (0 = no effect, 100 = complete control), Bermudagrass ([3]; 62 g ai/ha, preemergence): 10
- pest or weed control at 250 g/ha ([3]; Cynodon dactylon, post-emergence, 312 h, Postemergence, 250 g ai/ha, scale 0 to 100, read-out: Bermudagrass plant response rating): 100%
- pest or weed control at 125 g/ha ([3]; Cynodon dactylon, post-emergence, 312 h, postemergence, 125 g ai/ha, scale 0 to 100, read-out: Plant response rating, Bermudagrass): 100%
- pest or weed control at 31 g/ha ([3]; Cynodon dactylon, pre-emergence, 312 h, 31 g ai/ha, preemergence, scale 0 to 100, read-out: Plant response rating, Bermudagrass): 0%
- pest or weed control at 125 g/ha [3, 9]: 10%
- pest or weed control at 250 g/ha ([3]; Cynodon dactylon, pre-emergence, 312 h, 250 g ai/ha, scale 0 to 100 (0 no effect, 100 complete control), visual, 12 to 14 days, read-out: Plant response rating, Bermudagrass): 10%
- Plant response rating (0 = no effect, 100 = complete control), Nutsedge, Yellow ([4]; preemergence): 0
- pest or weed control at 250 g/ha ([4]; Cyperus, post-emergence, Postemergence, 250 g ai/ha, scale 0 to 100, 0 no effect, 100 complete control, read-out: Plant response rating, Nutsedge, Yellow): 40%
- pest or weed control at 125 g/ha ([4]; Cyperus, post-emergence, postemergence, 125 g ai/ha, scale 0 to 100, read-out: Plant response rating, Nutsedge, Yellow): 40%
- pest or weed control at 62 g/ha ([4]; Cyperus, post-emergence, postemergence, scale 0 to 100, read-out: Plant response rating, Nutsedge, Yellow): 40%
- pest or weed control at 31 g/ha ([4]; Cyperus, pre-emergence, 31 g ai/ha, preemergence, scale 0 to 100, read-out: Plant response rating, Nutsedge, Yellow): 0%
- pest or weed control at 125 g/ha [4, 10]: 0%
- pest or weed control at 62 g/ha [5, 11]: 20%
- pest or weed control at 125 g/ha [5, 15]: 20%
- pest or weed control at 250 g/ha [5, 12]: 20%
- pest or weed control at 500 g/ha [5, 13]: 40%
- Plant response rating (0 = no effect, 100 = complete control), Nightshade ([6]; 62 g ai/ha, preemergence): 10
- pest or weed control at 31 g/ha ([6]; pre-emergence, 31 g ai/ha, preemergence, scale 0 to 100, read-out: Plant response rating, Nightshade): 0%
- pest or weed control at 125 g/ha [6, 14]: 10%

Compound: CCn1nc(C(C)(C)C)cc1C(=O)Nc1cccc(C(=O)NCC2CC2)c1 [Compound 62]
- Plant response rating, Foxtail, Giant ([1]; Postemergence, 500 g ai/ha, 0 to 100 scale, 0 no effect, 100 complete control): 55
- Plant response rating, Foxtail, Giant ([1]; Postemergence, 2000 g ai/ha, 0 to 100 scale, 0 no effect, 100 complete control): 85
- Foxtail, Giant plant response rating ([1]; Preemergence, 500 g ai/ha, visual rating, 0 to 100 scale (0 no effect, 100 complete control)): 75
- Foxtail, Giant plant response rating ([1]; Preemergence, 2000 g ai/ha, 0 to 100 scale, 0 no effect, 100 complete control): 100
- Plant response rating, Cocklebur [2, 16]: 0
- Plant response rating (0 = no effect, 100 = complete control), Cocklebur ([2]; preemergence): 0
- Plant response rating, Cocklebur [2, 17]: 0
- Plant response rating, Cocklebur [2, 18]: 0
- Plant response rating, Bermudagrass [3, 16]: 0
- Plant response rating (0 = no effect, 100 = complete control), Bermudagrass ([3]; 62 g ai/ha, preemergence): 10
- Plant response rating, Bermudagrass [3, 17]: 90
- Plant response rating, Bermudagrass [3, 18]: 95
- Plant response rating, Nutsedge, Yellow [4, 16]: 0
- Plant response rating (0 = no effect, 100 = complete control), Nutsedge, Yellow ([4]; preemergence): 0
- Plant response rating, Nutsedge, Yellow [4, 17]: 10
- Plant response rating, Nutsedge, Yellow [4, 18]: 40
- Ducksalad plant response rating [5, 11]: 25
- Ducksalad plant response rating [5, 15]: 35
- Ducksalad plant response rating [5, 12]: 90
- Plant response rating, Ducksalad [5, 13]: 90
- Plant response rating, Nightshade [6, 16]: 80
- Plant response rating (0 = no effect, 100 = complete control), Nightshade ([6]; 62 g ai/ha, preemergence): 80
- Plant response rating, Nightshade [6, 17]: 90
- Plant response rating, Nightshade [6, 18]: 95

Reference: US20060069132A1, “Azolecarboxamide herbicides” (priority 2004, published 2006)
